± gives the expanded uncertainty stated by the source.
How the values were obtained:
[1] = refractive index (Na D-line) (dimensionless); conditions: 298.15 K; 101.33 kPa; Liquid; Standard Abbe refractometry
[2] = 298.15 K; for surface tension liquid-gas: Maximal bubble pressure; for mass density: 101.33 kPa, Liquid, Vibrating tube method
[3] = 101 kPa, Liquid mixture 1, Drop volume

SMILES | refractive index [1] | surface tension liquid-gas [2] [mN/m] | mass density [2] [kg/m3] | interfacial tension ([3]; 278.15 K) [mN/m] | interfacial tension ([3]; 288.15 K) [mN/m] | interfacial tension ([3]; 298.15 K) [mN/m] | interfacial tension ([3]; 308.15 K) [mN/m] | interfacial tension ([3]; 318.15 K) [mN/m] | interfacial tension ([3]; 328.15 K) [mN/m] | interfacial tension ([3]; 338.15 K) [mN/m] | interfacial tension ([3]; 348.15 K) [mN/m] | interfacial tension ([3]; 358.15 K) [mN/m]
CCCCCO [pentan-1-ol] | 1.40941 ± 0.00032 | 24.7 ± 0.2 | 810.89 ± 0.12 | – | – | – | – | – | – | – | – | –
CCCCCCO [hexan-1-ol] + O | – | – | – | 5.77 ± 0.07 | 6.06 ± 0.07 | 6.29 ± 0.08 | 6.16 ± 0.08 | 6.18 ± 0.08 | 6.29 ± 0.08 | 6.14 ± 0.08 | 6 ± 0.07 | –
CCCCCCCCO [octan-1-ol] + O | – | – | – | 6.99 ± 0.08 | 7.53 ± 0.08 | 7.97 ± 0.08 | 8.41 ± 0.09 | 8.62 ± 0.09 | 8.67 ± 0.09 | 8.81 ± 0.09 | – | –
CC(C)OC(C)C [diisopropyl ether] | 1.3665 ± 0.00031 | 16.9 ± 0.16 | 718.89 ± 0.15 | – | – | – | – | – | – | – | – | –
C1CCOCC1 [tetrahydropyran] + O | – | – | – | 4.64 ± 0.07 | 5.19 ± 0.07 | 5.78 ± 0.07 | 6.35 ± 0.08 | 6.75 ± 0.08 | 7.28 ± 0.08 | 7.45 ± 0.08 | – | –
O [water] | 1.33374 ± 0.00031 | 71.94 ± 0.41 | 996.7 ± 0.04 | – | – | – | – | – | – | – | – | –
COC(C)(C)C [2-methoxy-2-methylpropane] + O | – | – | – | 7.8 ± 0.08 | 8.83 ± 0.09 | 9.8 ± 0.09 | 10.8 ± 0.1 | 11.7 ± 0.1 | – | – | – | –
CCOC(C)(C)C [2-ethoxy-2-methylpropane] + O | – | – | – | 14 ± 0.11 | 15.5 ± 0.12 | 16.6 ± 0.12 | 17.8 ± 0.13 | 18.7 ± 0.13 | 19.3 ± 0.14 | – | – | –
CCC(C)(C)OC [2-methoxy-2-methylbutane] | 1.38736 ± 0.00032 | 20.3 ± 0.17 | 765.91 ± 0.14 | – | – | – | – | – | – | – | – | –
COC(C)(C)C [2-methoxy-2-methylpropane] | 1.36764 ± 0.00031 | 17.5 ± 0.16 | 735.31 ± 0.14 | – | – | – | – | – | – | – | – | –
CCCCCCCO [heptan-1-ol] + O | – | – | – | 6.61 ± 0.08 | 7.09 ± 0.08 | 7.4 ± 0.08 | 7.56 ± 0.08 | 7.73 ± 0.08 | 7.96 ± 0.08 | 7.9 ± 0.08 | 7.82 ± 0.08 | 7.74 ± 0.08
CCCCCCCO [heptan-1-ol] | 1.42384 ± 0.00031 | 27.4 ± 0.21 | 818.93 ± 0.11 | – | – | – | – | – | – | – | – | –
CCC(C)(C)OC [2-methoxy-2-methylbutane] + O | – | – | – | 12.2 ± 0.1 | 13.2 ± 0.11 | 14.5 ± 0.11 | 15.5 ± 0.12 | 16.3 ± 0.12 | 17 ± 0.13 | 17.5 ± 0.13 | – | –
CCCCCCCCO [octan-1-ol] | 1.42884 ± 0.00031 | 28 ± 0.2 | 822.25 ± 0.11 | – | – | – | – | – | – | – | – | –
CC(C)OC(C)C [diisopropyl ether] + O | – | – | – | 15.2 ± 0.12 | 16.3 ± 0.12 | 17.7 ± 0.13 | 18.7 ± 0.13 | 19.7 ± 0.14 | 21.1 ± 0.15 | – | – | –
CCOC(C)(C)C [2-ethoxy-2-methylpropane] | 1.37468 ± 0.00031 | 19.73 ± 0.17 | 736.65 ± 0.14 | – | – | – | – | – | – | – | – | –
C1CCOCC1 [tetrahydropyran] | 1.42004 ± 0.00031 | 28 ± 0.21 | 879.44 ± 0.09 | – | – | – | – | – | – | – | – | –
CCCCCO [pentan-1-ol] + O | – | – | – | 3.96 ± 0.07 | 4.24 ± 0.07 | 4.35 ± 0.07 | 4.5 ± 0.07 | 4.51 ± 0.07 | 4.43 ± 0.07 | 4.37 ± 0.07 | 4.21 ± 0.07 | 3.94 ± 0.07
CCCCO [butan-1-ol] + O | – | – | – | 1.49 ± 0.05 | 1.63 ± 0.05 | 1.68 ± 0.05 | 1.69 ± 0.05 | 1.63 ± 0.05 | 1.54 ± 0.05 | 1.39 ± 0.05 | 1.2 ± 0.05 | 1.04 ± 0.05

From the NIST ThermoML archive (doi:10.1016/j.fluid.2015.03.040)
